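Five concentrations, 48 hours, 96-well plates. At the TGI there is no net growth.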
Columns and labels:
Test in all cases: NCI-60 cell line screen, 48 h
[1] = test system: MDA-N
[2] = test system: SK-OV-3 ovarian
[3] = test system: LOX IMVI melanoma
[4] = test system: HL-60(TB) leukemia
[5] = test system: ACHN renal
[6] = test system: MOLT-4 leukemia
[7] = test system: HOP-92 NSCLC
[8] = test system: HCT-116 colon
[9] = test system: SF-295 CNS
[10] = test system: SF-268 CNS
[11] = test system: SR leukemia
[12] = test system: UO-31 renal
[13] = test system: TK-10 renal
[14] = test system: EKVX NSCLC
[15] = test system: 786-0 renal
[16] = test system: DU-145 prostate
[17] = test system: SK-MEL-2 melanoma
[18] = test system: SK-MEL-5 melanoma
[19] = test system: KM12 colon
[20] = test system: RXF 393 renal
[21] = test system: OVCAR-4 ovarian
[22] = test system: NCI-H226 lung
[23] = test system: HS 578T breast
[24] = test system: RPMI-8226 leukemia
[25] = test system: MDA-MB-231 breast
[26] = test system: NCI-H460 lung
[27] = test system: HCC-2998 colon
[28] = test system: IGROV1 ovarian
[29] = test system: HOP-62 NSCLC
[30] = test system: MDA-MB-435
[31] = test system: U251 CNS
[32] = test system: HCT-15 colon
[33] = test system: NCI-H23 lung
[34] = test system: OVCAR-5 ovarian
[35] = test system: M14 melanoma
[36] = test system: CCRF-CEM leukemia
[37] = test system: MCF7 breast
[38] = test system: SNB-19 CNS
[39] = test system: T-47D breast
[40] = test system: MALME-3M melanoma
[41] = test system: K-562 leukemia
[42] = test system: OVCAR-3 ovarian
[43] = test system: NCI-H522 lung
[44] = test system: A549 NSCLC
[45] = test system: SW-620 colon
[46] = test system: SF-539 CNS
[47] = test system: SK-MEL-28 melanoma
[48] = test system: UACC-62 melanoma
[49] = test system: PC-3 prostate
[50] = test system: COLO 205 colon
[51] = test system: CAKI-1 renal
[52] = test system: UACC-257 melanoma
[53] = test system: SN12C renal
[54] = test system: HT29 colon
[55] = test system: BT-549 breast
[56] = test system: NCI/ADR-RES ovarian
[57] = test system: OVCAR-8 ovarian

**Q.** How did the TGI [1] turn out when `CSC(SC)=C(C#N)C(=O)Nc1ccc(C)cc1` was run?
**A.** > 100 µM

**Q.** What about the TGI [2] of the same compound?
**A.** > 100 µM

**Q.** And the TGI [3]?
**A.** > 100 µM

**Q.** What about the TGI [4] of the same compound?
**A.** > 100 µM

**Q.** What about the TGI [5] of the same compound?
**A.** > 100 µM

**Q.** What about the TGI [6] of the same compound?
**A.** > 100 µM

**Q.** And the TGI [7]?
**A.** 54.8 µM

**Q.** And the TGI [8]?
**A.** > 100 µM

**Q.** And the TGI [9]?
**A.** > 100 µM

**Q.** And the TGI [10]?
**A.** > 100 µM

**Q.** And the TGI [11]?
**A.** > 100 µM

**Q.** And the TGI [12]?
**A.** > 100 µM

**Q.** And the TGI [13]?
**A.** > 100 µM

**Q.** What about the TGI [14] of the same compound?
**A.** > 100 µM

**Q.** What about the TGI [15] of the same compound?
**A.** > 100 µM

**Q.** What about the TGI [16] of the same compound?
**A.** > 100 µM

**Q.** What about the TGI [17] of the same compound?
**A.** > 100 µM

**Q.** And the TGI [18]?
**A.** > 100 µM

**Q.** And the TGI [19]?
**A.** > 100 µM

**Q.** And the TGI [20]?
**A.** > 100 µM

**Q.** And the TGI [21]?
**A.** > 100 µM

**Q.** And the TGI [22]?
**A.** > 100 µM

**Q.** What about the TGI [23] of the same compound?
**A.** > 100 µM

**Q.** What about the TGI [24] of the same compound?
**A.** > 100 µM

**Q.** What about the TGI [25] of the same compound?
**A.** > 100 µM

**Q.** What about the TGI [26] of the same compound?
**A.** > 100 µM

**Q.** And the TGI [27]?
**A.** > 100 µM

**Q.** What about the TGI [28] of the same compound?
**A.** > 100 µM

**Q.** What about the TGI [29] of the same compound?
**A.** > 100 µM

**Q.** And the TGI [30]?
**A.** > 100 µM

**Q.** And the TGI [31]?
**A.** > 100 µM

**Q.** And the TGI [32]?
**A.** > 100 µM

**Q.** What about the TGI [33] of the same compound?
**A.** > 100 µM

**Q.** And the TGI [34]?
**A.** > 100 µM

**Q.** And the TGI [35]?
**A.** > 100 µM

**Q.** What about the TGI [36] of the same compound?
**A.** > 100 µM

**Q.** What about the TGI [37] of the same compound?
**A.** > 100 µM

**Q.** And the TGI [38]?
**A.** > 100 µM

**Q.** And the TGI [39]?
**A.** > 100 µM

**Q.** What about the TGI [40] of the same compound?
**A.** > 100 µM

**Q.** What about the TGI [41] of the same compound?
**A.** > 100 µM

**Q.** And the TGI [42]?
**A.** > 100 µM

**Q.** And the TGI [43]?
**A.** > 100 µM

**Q.** What about the TGI [44] of the same compound?
**A.** > 100 µM

**Q.** What about the TGI [45] of the same compound?
**A.** > 100 µM

**Q.** And the TGI [46]?
**A.** > 100 µM

**Q.** And the TGI [47]?
**A.** > 100 µM

**Q.** And the TGI [48]?
**A.** > 100 µM

**Q.** And the TGI [49]?
**A.** > 100 µM

**Q.** And the TGI [50]?
**A.** > 100 µM

**Q.** What about the TGI [51] of the same compound?
**A.** > 100 µM

**Q.** And the TGI [52]?
**A.** > 100 µM

**Q.** And the TGI [53]?
**A.** > 100 µM

**Q.** And the TGI [54]?
**A.** > 100 µM

**Q.** What about the TGI [55] of the same compound?
**A.** > 100 µM

**Q.** With `COc1ccc(C2SC(N)=Nc3c2c(C)nn3C(=O)c2ccccc2O)cc1` (stereo not drawn) as the compound, how does the TGI [1] read?
**A.** > 10 µM

**Q.** What about the TGI [2] of the same compound?
**A.** > 10 µM

**Q.** And the TGI [3]?
**A.** > 10 µM

**Q.** And the TGI [4]?
**A.** 5.21 µM

**Q.** And the TGI [5]?
**A.** > 10 µM

**Q.** And the TGI [6]?
**A.** > 10 µM

**Q.** What about the TGI [7] of the same compound?
**A.** > 10 µM

**Q.** And the TGI [8]?
**A.** > 10 µM

**Q.** And the TGI [9]?
**A.** > 10 µM

**Q.** What about the TGI [10] of the same compound?
**A.** > 10 µM

**Q.** What about the TGI [14] of the same compound?
**A.** > 10 µM

**Q.** What about the TGI [15] of the same compound?
**A.** > 10 µM

**Q.** And the TGI [56]?
**A.** > 10 µM

**Q.** And the TGI [17]?
**A.** > 10 µM

**Q.** And the TGI [18]?
**A.** > 10 µM

**Q.** And the TGI [19]?
**A.** > 10 µM

**Q.** What about the TGI [20] of the same compound?
**A.** > 10 µM

**Q.** And the TGI [21]?
**A.** > 10 µM

**Q.** What about the TGI [22] of the same compound?
**A.** > 10 µM

**Q.** What about the TGI [23] of the same compound?
**A.** > 10 µM

**Q.** What about the TGI [57] of the same compound?
**A.** > 10 µM

**Q.** What about the TGI [24] of the same compound?
**A.** 6.99 µM

**Q.** What about the TGI [25] of the same compound?
**A.** 9.79 µM

**Q.** What about the TGI [26] of the same compound?
**A.** > 10 µM

**Q.** And the TGI [27]?
**A.** > 10 µM

**Q.** And the TGI [28]?
**A.** > 10 µM

**Q.** And the TGI [29]?
**A.** > 10 µM

**Q.** What about the TGI [30] of the same compound?
**A.** > 10 µM

**Q.** What about the TGI [31] of the same compound?
**A.** > 10 µM

**Q.** And the TGI [32]?
**A.** > 10 µM

**Q.** What about the TGI [33] of the same compound?
**A.** > 10 µM

**Q.** And the TGI [34]?
**A.** > 10 µM

**Q.** What about the TGI [35] of the same compound?
**A.** > 10 µM

**Q.** And the TGI [36]?
**A.** > 10 µM

**Q.** What about the TGI [37] of the same compound?
**A.** > 10 µM

**Q.** What about the TGI [38] of the same compound?
**A.** > 10 µM

**Q.** And the TGI [39]?
**A.** > 10 µM

**Q.** And the TGI [40]?
**A.** > 10 µM

**Q.** What about the TGI [41] of the same compound?
**A.** 3.85 µM

**Q.** What about the TGI [42] of the same compound?
**A.** 7.48 µM

**Q.** What about the TGI [43] of the same compound?
**A.** > 10 µM

**Q.** What about the TGI [44] of the same compound?
**A.** > 10 µM

**Q.** And the TGI [45]?
**A.** > 10 µM

**Q.** What about the TGI [46] of the same compound?
**A.** 0.628 µM

**Q.** And the TGI [47]?
**A.** > 10 µM

**Q.** What about the TGI [48] of the same compound?
**A.** > 10 µM

**Q.** And the TGI [49]?
**A.** > 10 µM

**Q.** What about the TGI [50] of the same compound?
**A.** > 10 µM

**Q.** And the TGI [51]?
**A.** > 10 µM

**Q.** And the TGI [52]?
**A.** > 10 µM

**Q.** And the TGI [53]?
**A.** > 10 µM

**Q.** What about the TGI [54] of the same compound?
**A.** > 10 µM

**Q.** And the TGI [55]?
**A.** > 10 µM

From PubChem BioAssay (NCI)
